The term melting point denotes the temperature of the solid-liquid transition. With `COC(=O)c1ccc2c(c1)Nc1nccnc1S2`, the melting point lay in the range of 265 to 268 °C.

`Cc1nccn1Cc1ccc2c(c1)Nc1nccnc1S2` had a melting point of 244 to 246 °C. Then `Clc1nccn1Cc1ccc2c(c1)Nc1nccnc1S2`, with 231 to 232 °C; and `Nc1nccn1Cc1ccc2c(c1)Nc1nccnc1S2`, with 286 to 287 °C. The same measure for `N#Cc1ccc(-c2cn(Cc3ccc4c(c3)Nc3nccnc3S4)cn2)cc1`: 262 to 264 °C; for `CCOC(=O)c1ncn(Cc2ccc3c(c2)Nc2nccnc2S3)c1C`: 222 to 224 °C; for `O=C(O)/C=C/c1cn(Cc2ccc3c(c2)Nc2nccnc2S3)cn1`: 275 to 276 °C. Then `COC(C)(C)CC/C(=C\c1ncn(Cc2ccc3c(c2)Nc2nccnc2S3)c1C)C(=O)O`, with 202 to 204 °C. Molecule `C/C(=C\c1c(C)ncn1Cc1ccc2c(c1)Nc1nccnc1S2)C(=O)O` showed a melting point of more than 298 °C.

On to `OC(c1ccccn1)c1nccn1Cc1ccc2c(c1)Nc1nccnc1S2` (centres unmarked), for which the melting point lay in the range of 95 to 98 °C. `O=C(O)CC1CC2(C1)C1CCCC2CN(Cc2ccc3c(c2)Nc2nccnc2S3)C1` (centres unmarked) showed a melting point of 199 to 201 °C. The same measure for `Cc1ncn(Cc2ccc3c(c2)Nc2nccnc2S3)c1CO`: 188 to 192 °C; for `CC1C[C@@H](C)C2CN(Cc3ccc4c(c3)Nc3nccnc3S4)CC1C21CC(CC(=O)O)C1` (some centres unmarked): 205 to 206 °C; for `c1cnc2c(n1)Nc1cc(Cn3cnnn3)ccc1S2`: 210 to 212 °C. The same measure for `c1cnc2c(n1)Nc1cc(Cn3ncnn3)ccc1S2`: 206 to 208 °C; for `O=C(O)C(F)=C1C2CCCC1CN(Cc1ccc3c(c1)Nc1nccnc1S3)C2`: 223 to 225 °C (dec.). The same measure for `COC(c1cccnc1)c1ccc2c(c1)Nc1nccnc1S2` (centres unmarked): 156 to 188 °C; for `CCc1ccc(C(O)c2ccc3c(c2)Nc2nccnc2S3)cn1` (centres unmarked): 161 to 163 °C. `CC(CC1C2CN(Cc3ccc4c(c3)Nc3nccnc3S4)CC1C(C)CC2C)C(=O)O` (centres unmarked) displayed a melting point of 110 to 115 °C. `CCOP(=O)(Cc1ccc2c(c1)Nc1nccnc1S2)OCC` came in with a melting point of 164 to 165 °C.

In the case of `CN(Cc1ccc(S(N)(=O)=O)cc1)Cc1ccc2c(c1)Nc1nccnc1S2`, the melting point is 181 to 184 °C. Then `CN(Cc1ccc(C(=O)O)cc1)Cc1ccc2c(c1)Nc1nccnc1S2`, with 241 to 244 °C; and `CN(Cc1ccc2c(c1)Nc1nccnc1S2)CC1CCC(C(=O)O)CC1` (centres unmarked), with 203 to 204 °C. Then `O=C(Nc1ccccc1)OCc1ccc2c(c1)Nc1nccnc1S2`, with 237 to 240 °C; and `CN(C)c1ncnc2c1ncn2Cc1ccc2c(c1)Nc1nccnc1S2`, with 229 to 233 °C. Then `N#Cc1ncnc2c1ncn2Cc1ccc2c(c1)Nc1nccnc1S2`, with 272 to 274 °C; and `c1cnc2c(n1)Nc1cc(Cn3cnc4c(N5CCCCC5)ncnc43)ccc1S2`, with 228 to 229 °C. In turn, `CN(C)c1nc(N(C)C)c2ncn(Cc3ccc4c(c3)Nc3nccnc3S4)c2n1` showed a melting point of 239 to 240 °C. The same measure for `CCc1ncnc2c1ncn2Cc1ccc2c(c1)Nc1nccnc1S2`: 215 to 217 °C; for `OCC#Cc1ncnc2c1ncn2Cc1ccc2c(c1)Nc1nccnc1S2`: 152 to 154 °C (dec.); for `CC(=O)c1ncnc2ncn(Cc3ccc4c(c3)Nc3nccnc3S4)c12`: 266 to 268 °C. Then `CCOC(=O)CCCCSc1ncnc2ncn(Cc3ccc4c(c3)Nc3nccnc3S4)c12`, with 175 to 178 °C; and `CCCCC(Sc1ncnc2c1ncn2Cc1ccc2c(c1)Nc1nccnc1S2)C(=O)O` (centres unmarked), with 110 to 120 °C (dec.). The same measure for `N/C(Cc1ccc2c(c1)Nc1nccnc1S2)=N\NS(=O)(=O)c1ccccc1`: 226 to 227 °C; for `CS(=O)(=O)NC1CN=C(Cc2ccc3c(c2)Nc2nccnc2S3)NC1.Cl` (centres unmarked): 275 to 277 °C; for `CC(C)NC(Cc1ccc2c(c1)Nc1nccnc1S2)=NC#N`: 266 to 268 °C. The molecule `N#CN=C(Cc1ccc2c(c1)Nc1nccnc1S2)NCCO` showed a melting point of 268 to 270 °C. The same measure for `N#CN=C(Cc1ccc2c(c1)Nc1nccnc1S2)NCCS(=O)(=O)[O-].[Na+]`: 213 to 215 °C. Regarding `N#CN=CN(Cc1ccc2c(c1)Nc1nccnc1S2)Cc1ccccn1`, the melting point lay in the range of 208 to 210 °C. `CN(C)/C=N/Cc1ccc2c(c1)Nc1nccnc1S2`: the melting point lay within 218 to 219 °C. Then `CN/C(=C\[N+](=O)[O-])NCc1ccc2c(c1)Nc1nccnc1S2`, with > 265 °C (dec.).

Regarding `Cl.N=C(N)c1ccnc2c1Sc1ccccc1N2`, the melting point was more than 280 °C. Then `CS(=O)(=O)NCCC1CCN(Cc2ccc3c(c2)Nc2nccnc2S3)CC1`, with 168 to 170 °C; and `NS(=O)(=O)NC1CCN(Cc2ccc3c(c2)Nc2nccnc2S3)CC1`, with 196 to 199 °C; and `CS(=O)(=O)NCC1=CCCN(Cc2ccc3c(c2)Nc2nccnc2S3)C1`, with 110 to 112 °C. The same measure for `NC(=O)OC1CCN(Cc2ccc3c(c2)Nc2nccnc2S3)CC1`: 139 to 142 °C.

The molecule `OC(c1ccc2c(c1)Nc1nccnc1S2)c1ccccc1CN1CCCCC1` (centres unmarked) registered a melting point of 219 to 221 °C. Then `CN1CCN(Cc2ccc3c(c2)Nc2nccnc2S3)CC1`, with 191 to 192 °C. The same measure for `CC1(O)CCN(Cc2ccc3c(c2)Nc2nccnc2S3)CC1`: 176 to 180 °C.

Take `O=S(=O)(NC1CCN(Cc2ccc3c(c2)Nc2nccnc2S3)CC1)N1CCCCC1`: the melting point was 56 to 57 °C. In the case of `O=S(=O)(NC1CCN(Cc2ccc3c(c2)Nc2nccnc2S3)CC1)N1CCOCC1`, the melting point lay within 189 to 190 °C. Then `CC(C)(O)CC1CCN(Cc2ccc3c(c2)Nc2nccnc2S3)CC1`, with 187 to 188 °C; and `N/C(=N\S(N)(=O)=O)C1CCN(Cc2ccc3c(c2)Nc2nccnc2S3)CC1`, with 202 to 206 °C; and `CC(=O)NCC1CCN(Cc2ccc3c(c2)Nc2nccnc2S3)CC1`, with 168 to 170 °C. On to `CNc1c(N2CCN(Cc3ccc4c(c3)Nc3nccnc3S4)CC2)c(=O)c1=O`, for which the melting point was more than 300 °C.

For the molecule `c1cnc2c(n1)Nc1cc(CN3CCCCCC3)ccc1S2`, the melting point is 161 to 163 °C. Then `CN(C)S(=O)(=O)CCC1CCN(Cc2ccc3c(c2)Nc2nccnc2S3)CC1`, with 188 to 190 °C; and `O=C(Cc1ccc2c(c1)Nc1nccnc1S2)NCCCN1CCC(C(=O)O)CC1`, with 143 °C (dec.). The same measure for `CC(CCC1CCN(Cc2ccc3c(c2)Nc2ncncc2S3)CC1)C(=O)O` (centres unmarked): 219 to 220 °C; for `COc1cc2c(cc1CN1CCC(CCC(C)C(=O)O)CC1)Nc1nccnc1S2` (centres unmarked): 155 to 160 °C; for `CC(C(=O)O)C1CC2(CCN(Cc3ccc4c(c3)Nc3nccnc3S4)CC2)C1` (centres unmarked): 169 to 172 °C. In the case of `O=C(O)CNC1CCN(Cc2ccc3c(c2)Nc2nccnc2S3)CC1`, the melting point lay within 206 to 208 °C. Then `O=C(O)CC(=O)NC1CCN(Cc2ccc3c(c2)Nc2nccnc2S3)CC1`, with 149 to 151 °C. The same measure for `O=C(O)Cc1ccc(C2(O)CCN(Cc3ccc4c(c3)Nc3nccnc3S4)CC2)cc1`: 192 °C (dec.); for `O=C([O-])Cc1ccc(OC2CCN(Cc3ccc4c(c3)Nc3nccnc3S4)CC2)cc1.[Na+]`: 261 to 265 °C (dec.). The same measure for `CC(C(=O)O)=C1CCN(Cc2ccc3c(c2)Nc2nccnc2S3)CC1`: 125 to 127 °C; for `O=C(O)CS(=O)(=O)NC1CCN(Cc2ccc3c(c2)Nc2nccnc2S3)CC1`: 200 to 210 °C.

As to `CC(CCC1CCN(Cc2cnc3c(c2)Nc2nccnc2S3)CC1)C(=O)O` (centres unmarked), the melting point fell in the range of 115 to 118 °C. Then `CS(=O)(=O)N(CC(=O)O)C1CCN(Cc2ccc3c(c2)Nc2nccnc2S3)CC1`, with 210 to 215 °C; and `CS(=O)(=O)N1CCC(N(CC(=O)O)Cc2ccc3c(c2)Nc2nccnc2S3)CC1`, with 185 to 189 °C. Then `COC(=O)c1ccc(CN2c3ccccc3Nc3nccnc32)cc1`, with 232 to 234 °C; and `CCOC(=O)c1ccc2c(c1)Nc1nccnc1N2`, with more than 275 °C. For `N#Cc1ccc2c(c1)Nc1nccnc1N2`, the melting point was more than 275 °C. Then `CN1c2ccc(C#N)cc2Nc2nccnc21`, with 274 to 275 °C; and `COc1ccc2c(c1)N(C)c1nccnc1N2`, with 195 to 197 °C. Then `COC(=O)CCCN1c2ccccc2Nc2nccnc21`, with 189 to 190 °C; and `CN1c2ccc(CO)cc2Nc2nccnc21`, with 215 to 218 °C. Then `CN1c2ccc(C(O)C#Cc3ccccc3)cc2Nc2nccnc21` (centres unmarked), with 204 to 208 °C; and `CN1c2ccc(CNC(=N)N)cc2Nc2nccnc21`, with more than 275 °C; and `CN1c2ccc(C#CCO)cc2Nc2nccnc21`, with 241 to 243 °C. In the case of `c1ccc2c(NCc3ccc4c(c3)Nc3nccnc3S4)nccc2c1`, the melting point fell in the range of 222 to 225 °C. The same measure for `NC(=O)c1ccc(NCc2ccc3c(c2)Nc2nccnc2S3)nc1`: 245 to 250 °C. The same measure for `COc1ccc(NCc2ccc3c(c2)Nc2nccnc2S3)c(OC)n1`: 160 to 164 °C; for `CCOC(=O)C(C)(C)CCCCc1ccc(NCc2ccc3c(c2)Nc2nccnc2S3)cn1`: 160 to 164 °C. Then `Cc1ccc(NCc2ccc3c(c2)Nc2nccnc2S3)cn1`, with 205 to 208 °C; and `CC(C)(CCCCc1ccc(NCc2ccc3c(c2)Nc2nccnc2S3)cn1)C(=O)O`, with 158 to 161 °C; and `Cc1cc(NCc2ccc3c(c2)Nc2nccnc2S3)c2ccccc2n1`, with 290 to 300 °C.

Molecule `Clc1ccc(NCc2ccc3c(c2)Nc2nccnc2S3)nc1` came in with a melting point of 200 to 203 °C.

Molecule `CS(=O)(=O)N(Cc1ccc2c(c1)Nc1nccnc1S2)c1cccnc1` had a melting point of 208 to 210 °C.

For the origin of these results see patent US6518423B1, “Benzopiperidine derivatives” (Eisai Co., Ltd., priority 1996, dated 2003).
